Experimental data: patent publication US20250163057A1, “DCN-1 MODULATING COMPOUNDS AND METHODS OF USE THEREOF” (Cellarity, Inc., priority 2023, published 2025)
Where two headings read alike, the source gives them in different places.

Target: DCN1 (DCUND1) protein PONY domain (Homo sapiens (Human), UniProt Q96GG9)
Assay: TR-FRET assay, DCN1 binding with FAM-labeled probe
Experimental: A TR-FRET assay was performed to evaluate the ability of the compounds to bind the DCN-1 protein.
The TR-FRET assay was designed following the Scott et al. protocol (Scott et al., Nat Chem Biol. 2017 August; 13(8): 850-857. Doi:10.1038/nchembio.2386). The recombinant form of the DCN1 (DCUND1) protein PONY domain was produced using an E. coli expression system at Viva Biotech (China). The DCN1 protein was biotinylated (EZ sulfo-NHS-LC-biotin; Thermofisher) for labeling with streptavidin terbium (Tb) cryptate in the reaction. The probe was changed to a non-covalent DCN1 inhibitor labeled with carboxyfluorescein (FAM; Zhou et al., Nat Commun. 2017; 8: 1150. Doi: 10.1038/s41467-017-01243-7). Buffer conditions were modified to enhance protein stability by exchanging Tween20 for TritonX and increasing NaCl to 200 mM. The compounds were screened against 5 nM DCN1 and 20 nM FAM-probe or 0.31 nM DCN1 and 900 nM total probe (100 nM FAM-labeled plus 800 nM unlabeled). The TR-FRET ratio between Tb-DCN1 and the FAM-labeled probe was measured in a 384-well opti-plate (Perkin Elmer) using a plate reader (BMG) at 1, 5, and 24 hrs after treatment with compound (final DMSO concentration of 0.1%).

[1] = 24 hr after treatment with compound, read-out: TR FRET IC50 24 hr
[2] = TR FRET IC50 1 hr (nM), 1 hr after treatment with compound
[3] = read-out: TR FRET IC50 1 hr, 1 hr after treatment with compound

DCN1 (DCUND1) protein PONY domain, sequence (Q96GG9 60-248): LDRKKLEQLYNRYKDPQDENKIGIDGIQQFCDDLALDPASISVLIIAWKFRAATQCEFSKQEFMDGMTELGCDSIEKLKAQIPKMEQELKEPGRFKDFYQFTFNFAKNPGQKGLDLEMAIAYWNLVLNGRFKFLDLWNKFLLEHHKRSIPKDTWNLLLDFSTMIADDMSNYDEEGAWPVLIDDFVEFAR

CCN1C(=O)[C@@H](NC(=O)c2cccc(C(F)(F)F)c2)[C@@H](c2ccc(F)cc2)c2c(C(=O)N3CCC[C@@H]3C#N)nn(-c3ccccc3)c21 (mixture of isomers) [Compound I-94]
IC50 [1]: 200 to 1000 nM | IC50 [2]: 200 to 1000 nM

CCN1C(=O)[C@@H](NC(=O)c2cccc(C(F)(F)F)c2)[C@@H](c2ccc(F)cc2)c2c(C(=O)N3CC[C@H](C#N)C3)nn(-c3ccccc3)c21 (mixture of isomers) [Compound I-137]
IC50 [1]: 200 to 1000 nM | IC50 [2]: 200 to 1000 nM

CCN1C(=O)[C@@H](NC(=O)c2cccc(C(F)(F)F)c2)[C@@H](c2ccc(F)cc2)c2c(C(=O)N[C@H](C)C#N)nn(-c3ccccc3)c21 (mixture of isomers) [Compound I-157]
IC50 [1]: 200 to 1000 nM | IC50 [2]: 1000 to 3000 nM

C/C=C/S(=O)(=O)NCc1nn(-c2ccccc2)c2c1[C@H](c1ccc(F)cc1)[C@H](NC(=O)c1cccc(C(F)(F)F)c1)C(=O)N2CC (racemic) [Compound I-6]
IC50 [1]: ≤ 200 nM | IC50 [2]: 200 to 1000 nM

CCN1C(=O)[C@@H](NC(=O)c2cccc(C(F)(F)F)c2)[C@@H](c2ccc(F)cc2)c2c([C@H](O)CNC#N)nn(-c3ccccc3)c21 (racemic) [Compound I-9, rac-N-((4R,5R)-3-(2-cyanamido-1-hydroxyethyl)-7-ethyl-4-(4-fluorophenyl)-6-oxo-1-phenyl-4,5,6,7-tetrahydro-1H-pyrazolo[3,4-b]pyridin-5-yl)-3-(trifluoromethyl)benzamide]
IC50 [1]: 1000 to 3000 nM | IC50 [2]: 200 to 1000 nM

CCN1C(=O)[C@@H](NC(=O)c2cccc(C(F)(F)F)c2)[C@@H](c2ccc(F)cc2)c2c(NC(=O)C#CCN3CCOCC3)nn(-c3ccccc3)c21 (racemic) [Compound I-11, rac-N-((4R,5R)-7-ethyl-4-(4-fluorophenyl)-3-(4-morpholinobut-2-ynamido)-6-oxo-1-phenyl-4,5,6,7-tetrahydro-1H-pyrazolo[3,4-b]pyridine-5-yl)-3-(trifluoromethyl)benzamide]
IC50 [1]: ≤ 200 nM | IC50 [2]: 200 to 1000 nM

C/C=C(\CN1CCOCC1)C(=O)NCc1nn(-c2ccccc2)c2c1[C@H](c1ccc(F)cc1)[C@H](NC(=O)c1cccc(C(F)(F)F)c1)C(=O)N2CC (racemic) [Compound I-14]
IC50 [1]: ≤ 200 nM | IC50 [3]: ≤ 200 nM

CCN1C(=O)[C@@H](NC(=O)c2cccc(C(F)(F)F)c2)[C@@H](c2ccc(F)cc2)c2c(CNC(=O)/C=C/C(=O)NCCO)nn(-c3ccccc3)c21 (racemic) [Compound I-15, rac-N1-(((4R,5R)-7-ethyl-4-(4-fluorophenyl)-6-oxo-1-phenyl-5-(3-(trifluoromethyl)benzamido)-4,5,6,7-tetrahydro-1H-pyrazolo[3,4-b]pyridine-3-yl)methyl)-N4-(2-hydroxyethyl)fumaramide]
IC50 [1]: 1000 to 3000 nM | IC50 [2]: 1000 to 3000 nM

C=C(CC(=O)OC)C(=O)NCc1nn(-c2ccccc2)c2c1[C@H](c1ccc(F)cc1)[C@H](NC(=O)c1cccc(C(F)(F)F)c1)C(=O)N2CC (racemic) [Compound I-17]
IC50 [1]: 1000 to 3000 nM | IC50 [2]: 1000 to 3000 nM

C=C(Cc1nn(-c2ccccc2)c2c1[C@H](c1ccc(F)cc1)[C@H](NC(=O)c1cccc(C(F)(F)F)c1)C(=O)N2CC)C(=O)O (racemic) [Compound I-21, rac-2-(((4R,5R)-7-ethyl-4-(4-fluorophenyl)-6-oxo-1-phenyl-5-(3-(trifluoromethyl)benzamido)-4,5,6,7-tetrahydro-1H-pyrazolo[3,4-b]pyridin-3-yl)methyl)acrylic acid]
IC50 [1]: 1000 to 3000 nM | IC50 [2]: 1000 to 3000 nM

CCN1C(=O)[C@@H](NC(=O)c2cccc(C(F)(F)F)c2)[C@@H](c2ccc(F)cc2)c2c(CNC(=O)C3(C#N)CCOCC3)nn(-c3ccccc3)c21 (racemic) [Compound I-22, rac-4-cyano-N-(((4R,5R)-7-ethyl-4-(4-fluorophenyl)-6-oxo-1-phenyl-5-(3-(trifluoromethyl)benzamido)-4,5,6,7-tetrahydro-1H-pyrazolo[3,4-b]pyridine-3-yl)methyl)tetrahydro-2H-pyran-4-carboxamide]
IC50 [1]: 1000 to 3000 nM | IC50 [2]: 1000 to 3000 nM

CCN1C(=O)[C@@H](NC(=O)c2cccc(C(F)(F)F)c2)[C@@H](c2ccc(F)cc2)c2c(C/C=C/C(=O)NCCCO)nn(-c3ccccc3)c21 (racemic) [Compound I-24]
IC50 [1]: 1000 to 3000 nM | IC50 [2]: 1000 to 3000 nM

CCN1C(=O)[C@@H](NC(=O)c2cccc(C(F)(F)F)c2)[C@@H](c2ccc(F)cc2)c2c(CNC(=O)C3=CCCN(C)C3)nn(-c3ccccc3)c21 (racemic) [Compound I-28]
IC50 [1]: ≤ 200 nM | IC50 [2]: 200 to 1000 nM

CCN1C(=O)[C@@H](NC(=O)c2cccc(C(F)(F)F)c2)[C@@H](c2ccc(F)cc2)c2c(C(=O)NC(C)(C)C#N)nn(-c3ccccc3)c21 (racemic) [Compound I-31, rac-(4R,5R)—N-(2-cyanopropan-2-yl)-7-ethyl-4-(4-fluorophenyl)-6-oxo-1-phenyl-5-(3-(trifluoromethyl)benzamido)-4,5,6,7-tetrahydro-1H-pyrazolo[3,4-b]pyridine-3-carboxamide]
IC50 [1]: 1000 to 3000 nM | IC50 [2]: 1000 to 3000 nM

CCN1C(=O)[C@@H](NC(=O)c2cccc(C(F)(F)F)c2)[C@@H](c2ccc(F)cc2)c2c(C/C=C/C(=O)NCCO)nn(-c3ccccc3)c21 (racemic) [Compound I-36]
IC50 [1]: 1000 to 3000 nM | IC50 [2]: 1000 to 3000 nM

CCN1C(=O)[C@@H](NC(=O)c2cccc(C(F)(F)F)c2)[C@@H](c2ccc(F)cc2)c2c(/C=C3\CCC(=O)N3)nn(-c3ccccc3)c21 (racemic) [Compound I-39, rac-N-((4R,5R)-7-ethyl-4-(4-fluorophenyl)-6-oxo-3-((E)-(5-oxopyrrolidin-2-ylidene)methyl)-1-phenyl-4,5,6,7-tetrahydro-1H-pyrazolo[3,4-b]pyridin-5-yl)-3-(trifluoromethyl)benzamide]
IC50 [1]: 1000 to 3000 nM | IC50 [2]: 1000 to 3000 nM

CCN1C(=O)[C@@H](NC(=O)c2cccc(C(F)(F)F)c2)[C@@H](c2ccc(F)cc2)c2c(C/C=C/C(=O)N(C)C)nn(-c3ccccc3)c21 (racemic) [Compound I-41]
IC50 [1]: 1000 to 3000 nM | IC50 [2]: 1000 to 3000 nM

CCN1C(=O)[C@@H](NC(=O)c2cccc(C(F)(F)F)c2)[C@@H](c2ccc(F)cc2)c2c(C(C)(C)N(C)C#N)nn(-c3ccccc3)c21 (racemic) [Compound I-42, rac-N-((4R,5R)-7-ethyl-4-(4-fluorophenyl)-3-(2-(N-methylcyanamido)propan-2-yl)-6-oxo-1-phenyl-4,5,6,7-tetrahydro-1H-pyrazolo[3,4-b]pyridin-5-yl)-3-(trifluoromethyl)benzamide]
IC50 [1]: 1000 to 3000 nM | IC50 [2]: 1000 to 3000 nM

CCN1C(=O)[C@@H](NC(=O)c2cccc(C(F)(F)F)c2)[C@@H](c2ccc(F)cc2)c2c(CC/C=C\C(=O)NC)nn(-c3ccccc3)c21 (racemic) [Compound I-43]
IC50 [1]: 1000 to 3000 nM | IC50 [2]: 200 to 1000 nM

CCN1C(=O)[C@@H](NC(=O)c2cccc(C(F)(F)F)c2)[C@@H](c2ccc(F)cc2)c2c(CNC(=O)/C=C/C(=O)OC(C)(C)C)nn(-c3ccccc3)c21 (racemic) [Compound I-45, tert-butyl I-4-((((4S,5S)-7-ethyl-4-(4-fluorophenyl)-6-oxo-1-phenyl-5-(3-(trifluoromethyl)benzamido)-4,5,6,7-tetrahydro-1H-pyrazolo[3,4-b]pyridine-3-yl)methyl)amino)-4-oxobut-2-enoate]
IC50 [1]: ≤ 200 nM | IC50 [2]: 1000 to 3000 nM

CCN1C(=O)[C@@H](NC(=O)c2cccc(C(F)(F)F)c2)[C@@H](c2ccc(F)cc2)c2c(C/C=C/C(N)=O)nn(-c3ccccc3)c21 (racemic) [Compound I-46, rac-N-((4R,5R)-3-((E)-4-amino-4-oxobut-2-en-1-yl)-7-ethyl-4-(4-fluorophenyl)-6-oxo-1-phenyl-4,5,6,7-tetrahydro-1H-pyrazolo[3,4-b]pyridin-5-yl)-3-(trifluoromethyl)benzamide]
IC50 [1]: 1000 to 3000 nM | IC50 [2]: 1000 to 3000 nM

CCN1C(=O)[C@@H](NC(=O)c2cccc(C(F)(F)F)c2)[C@@H](c2ccc(F)cc2)c2c(CC/C=C/C(=O)N(C)C)nn(-c3ccccc3)c21 (racemic) [Compound I-48]
IC50 [1]: ≤ 200 nM | IC50 [3]: ≤ 200 nM

CCN1C(=O)[C@@H](NC(=O)c2cccc(C(F)(F)F)c2)[C@@H](c2ccc(F)cc2)c2c(C3(N(C)C#N)CC3)nn(-c3ccccc3)c21 (racemic) [Compound I-52]
IC50 [1]: 1000 to 3000 nM | IC50 [2]: 1000 to 3000 nM

C=C(C)S(=O)(=O)NCc1nn(-c2ccccc2)c2c1[C@H](c1ccc(F)cc1)[C@H](NC(=O)c1cccc(C(F)(F)F)c1)C(=O)N2CC (racemic) [Compound I-54, rac-N-((4R,5R)-7-ethyl-4-(4-fluorophenyl)-3-(((1-methylvinyl)sulfonamido)methyl)-6-oxo-1-phenyl-4,5,6,7-tetrahydro-1H-pyrazolo[3,4-b]pyridin-5-yl)-3-(trifluoromethyl)benzamide]
IC50 [1]: 200 to 1000 nM | IC50 [2]: 200 to 1000 nM

CCN1C(=O)[C@@H](NC(=O)c2cccc(C(F)(F)F)c2)[C@@H](c2ccc(F)cc2)c2c(CNC(=O)/C=C/C(=O)O)nn(-c3ccccc3)c21 (racemic) [Compound I-59, rac-I-4-((((4R,5R)-7-ethyl-4-(4-fluorophenyl)-6-oxo-1-phenyl-5-(3-(trifluoromethyl)benzamido)-4,5,6,7-tetrahydro-1H-pyrazolo[3,4-b]pyridine-3-yl)methyl)amino)-4-oxobut-2-enoic acid]
IC50 [1]: 1000 to 3000 nM | IC50 [2]: 1000 to 3000 nM
